Assays:
[1] = molecular target: T1, activated catalytic domain of protein ERK5 (Homo sapiens, UniProt Q13164); experiment: Cell-Free Assay of ERK5 Inhibition (Time-Resolved Forster Resonance Energy Transfer); type: biochemical; settings: ERK5 4 nM, 1 mM ATP, 1 μM biotinylated 4EBP1 peptide, 30 min at 37° C.; TR-FRET; mean where repeated
T1 construct: purchased CarnaBiosciences #04-146
Method: (§1) Two assays were performed to assess the ERK5 inhibitory activity of compounds of the Examples, a cell-based assay and a cell-free biochemical assay. Where repeat measurements were taken, the value reported is a mean average.
Cell-Free Assay of ERK5 Inhibition
An assay was performed to measure the capacity of each compound to inhibit ERK5 enzymatic activity. Compound potency was evaluated by Time-Resolved Forster Resonance Energy Transfer (FRET system). The activated catalytic domain of protein ERK5 (CarnaBiosciences #04-146) was mixed at 4 nM with varying concentrations of compound and incubated for 30 minutes at room temperature. A mixture of 1 mM ATP and 1 μM biotinylated synthetic peptide was added (Biosyntan GmbH). This synthetic peptide represents amino acids 30-52 of Eukaryotic translation initiation factor 4E-binding protein 1 (see, e.g., the sequence under accession No. NP_004086.1) biotinylated at the N-terminus. After 30 minutes at 37° C., the peptide phosphorylation by ERK5 was measured by addition of FRET reagents consisting of 12.5 µg/ml Streptavidin-XL665, 1 nM Anti-P-4EBP1 antibody and 300 ng/ml Anti-rabbit-K antibody. Following 90 minutes at room temperature fluorescent signals were read on the Pherastar FSX multimod detector from BMG Labtech (Exc° 340 nm, Em1 620 nm, Em2 665 nm). The IC50 values represent the concentration of compound which inhibits the measurable fluorescence signal by […] as compared to the DMSO only control.

Cellular ERK5 Activity = molecular target: T2, Cellular ERK5 Activity (Homo sapiens, UniProt Q13164); experiment: Inhibition of Cellular ERK5 Activity (cell-based assay, MEF2 luciferase reporter in SN12C cells); settings: renal cancer cell line SN12C, doxycycline-induced MEK5DD, 0.3-10000 nM, mean where repeated
T2 construct: MEF2-response-element luciferase reporter (pGreenFire1)
T2 sequence (Q13164 whole entry): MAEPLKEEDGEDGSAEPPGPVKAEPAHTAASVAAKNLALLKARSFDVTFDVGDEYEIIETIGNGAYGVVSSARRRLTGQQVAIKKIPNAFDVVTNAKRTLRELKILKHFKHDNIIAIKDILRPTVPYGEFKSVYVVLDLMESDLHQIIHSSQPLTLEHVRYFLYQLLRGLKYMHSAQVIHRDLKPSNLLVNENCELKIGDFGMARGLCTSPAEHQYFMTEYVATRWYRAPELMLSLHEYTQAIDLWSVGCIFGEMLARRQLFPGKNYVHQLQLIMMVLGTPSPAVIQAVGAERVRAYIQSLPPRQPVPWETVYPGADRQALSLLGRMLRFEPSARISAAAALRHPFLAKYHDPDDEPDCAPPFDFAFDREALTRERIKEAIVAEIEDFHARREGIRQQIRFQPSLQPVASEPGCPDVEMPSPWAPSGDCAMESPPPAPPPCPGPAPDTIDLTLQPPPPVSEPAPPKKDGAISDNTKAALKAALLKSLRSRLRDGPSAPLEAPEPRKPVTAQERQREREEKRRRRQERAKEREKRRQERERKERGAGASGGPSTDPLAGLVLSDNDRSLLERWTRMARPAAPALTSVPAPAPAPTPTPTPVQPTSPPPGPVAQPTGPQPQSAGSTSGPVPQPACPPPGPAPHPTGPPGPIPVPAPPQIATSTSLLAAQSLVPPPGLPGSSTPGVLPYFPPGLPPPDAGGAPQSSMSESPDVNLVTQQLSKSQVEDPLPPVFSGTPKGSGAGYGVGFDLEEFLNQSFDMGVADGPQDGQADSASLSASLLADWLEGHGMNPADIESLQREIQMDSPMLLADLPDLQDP
Method: as §1
Inhibition of Cellular ERK5 Activity
The renal cancer cell line SN12C was transduced by a lentivirus pGreenFire1 MEF2 EF1 Neo (ref TR030VA-N) from SBI using standard infection protocol. pGreenFire1 MEF2 EF1 Neo allows the expression of luciferase gene under the control of minimal promoter with MEF2 transcriptional response elements. Cells harboring the reporter construct were selected by geneticin treatment. The selected cells were then transposed by a piggyback based plasmid pCM4007 allowing the expression of constitutively activated MEK5DD under control of TREG3 promoter, a doxycycline regulated promoter. Transposed cells were selected by puromycin treatment. Upon doxycycline treatment (1 μg/ml) MEK5DD was expressed. MEK5DD activates ERK5 that phosphorylates MEF2C protein. Activated MEF2C protein can bind to its transcriptional response elements. Then the luciferase is expressed. In a 96-well plate (96F nuncleon ref137101 thermofisher), 50,000 cells were inoculated in 142.5 μl of RPMI medium containing 10% fetal calf serum, 1% glutamine, and 1 μg/ml doxycycline. After 24 hours, compounds were added in 7.5 μl culture medium (with 2% DMSO to give a final concentration of 0.1%) in order to obtain the desired concentration (0.3-10000 nM). The luciferase activity was measured using the Kit Bright Glo Luminescent Cell Assay Cat E2610 (Promega) according to the manufacturer's protocol. Luminescence was determined using 0.2 second reading/well using a Tecan SPARK. IC50 values were calculated using XLFIT5 for Microsoft Excel using method 205. The IC50 values represent the concentration of compound which inhibits the measurable luminescence signal by 50% as compared to DMSO-treated control cells.

T1 sequence (Q13164 55-347 limits assumed): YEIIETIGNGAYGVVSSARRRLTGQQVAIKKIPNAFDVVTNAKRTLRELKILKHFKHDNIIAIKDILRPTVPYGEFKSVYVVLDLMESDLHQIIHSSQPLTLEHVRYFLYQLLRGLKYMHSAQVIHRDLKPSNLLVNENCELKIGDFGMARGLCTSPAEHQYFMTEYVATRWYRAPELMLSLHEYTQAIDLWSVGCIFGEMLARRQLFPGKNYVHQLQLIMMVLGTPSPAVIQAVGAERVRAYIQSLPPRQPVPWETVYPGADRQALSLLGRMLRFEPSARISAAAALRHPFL

IC50 [1] [nM]	IC50 (Cellular ERK5 Activity) [nM]	SMILES
212	88	O=C(c1ccc(OC(F)(F)F)cc1)N1CCC(c2c[nH]c3ncc(C4CCOC4)nc23)CC1 (racemic) [Example 5, (rac)-[4-(2-Tetrahydrofuran-3-yl-5H-pyrrolo[2,3-b]pyrazin-7-yl)-1-piperidyl]-[4-(trifluoromethoxy)phenyl]methanone]
130	–	Nc1cc(OC(F)(F)F)ccc1C(=O)N1CCC(c2c[nH]c3ncc(C4CCOC4)nc23)CC1 (racemic) [Example 12, (rac)-[2-Amino-4-(trifluoromethoxy)phenyl]-[4-(2-tetrahydrofuran-3-yl-5H-pyrrolo[2,3-b]pyrazin-7-yl)-1-piperidyl]methanone]
–	261	Nc1cc(OC(F)(F)F)ccc1C(=O)N1CCC(c2c[nH]c3ncc(C4CCOCC4)nc23)C1 (racemic) [Example 24, (rac)-[2-Amino-4-(trifluoromethoxy)phenyl]-[3-(2-tetrahydropyran-4-yl-5H-pyrrolo[2,3-b]pyrazin-7-yl)pyrrolidine-1-yl]methanone]
–	230	O=C(c1ccc(OC(F)(F)F)cc1)N1CCC(c2c[nH]c3ncc(C4CCOCC4)nc23)C1 (racemic) [Example 25, (rac)-[3-(2-Tetrahydropyran-4-yl-5H-pyrrolo[2,3-b]pyrazin-7-yl)pyrrolidin-1-yl]-[4-(trifluoromethoxy)phenyl]methanone]
291	124	O=C(c1ccc(OC(F)(F)F)cc1)N1CCC(c2c[nH]c3ncc(NC4CCOC4)nc23)CC1 (racemic) [Example 36, (rac)-[4-[2-[[tetrahydrofuran-3-yl]amino]-5H-pyrrolo[2,3-b]pyrazin-7-yl]-1-piperidyl]-[4-(trifluoromethoxy)phenyl]methanone]
94	60	Nc1cc(OC(F)(F)F)ccc1C(=O)N1CCC(c2c[nH]c3ncc(NC4CCOC4)nc23)CC1 (racemic) [Example 37, (rac)-[2-amino-4-(trifluoromethoxy)phenyl]-[4-[2-[[tetrahydrofuran-3-yl]amino]-5H-pyrrolo[2,3-b]pyrazin-7-yl]-1-piperidyl]methanone]
9720	357	Nc1cc(S(F)(F)(F)(F)F)ccc1C(=O)N1CCC(c2c[nH]c3ncc(C4CCOCC4)nc23)C1 (racemic) [Example 43, (rac)-[2-amino-4-(pentafluoro-λ^6-sulfanyl)phenyl]-[3-(2-tetrahydropyran-4-yl-5H-pyrrolo[2,3-b]pyrazin-7-yl)pyrrolidin-1-yl]methanone]
93	49	Nc1cc(OC(F)(F)F)ccc1C(=O)N1CCC(c2c[nH]c3ncc(C4CCOC4)nc23)CC1 (single isomer, unassigned) [Example 13, [2-Amino-4-(trifluoromethoxy)phenyl]-[4-(2-tetrahydrofuran-3-yl-5H-pyrrolo[2,3-b]pyrazin-7-yl)-1-piperidyl]methanone]
99	46	Nc1cc(OC(F)(F)F)ccc1C(=O)N1CCC(c2c[nH]c3ncc(C4CCOC4)nc23)CC1 (single isomer, unassigned) [Example 14, [2-Amino-4-(trifluoromethoxy)phenyl]-[4-(2-tetrahydrofuran-3-yl-5H-pyrrolo[2,3-b]pyrazin-7-yl)-1-piperidyl]methanone]
361	79	O=C(c1ccc(OC(F)(F)F)cc1)N1CCC(c2c[nH]c3ncc(NC4CCOC4)nc23)CC1 (single isomer, unassigned; isomer 1) [Example 32, [4-[2-[[tetrahydrofuran-3-yl]amino]-5H-pyrrolo[2,3-b]pyrazin-7-yl]-1-piperidyl]-[4-(trifluoromethoxy)phenyl]methanone, Isomer 1]
94	> 10000	Nc1cc(OC(F)(F)F)ccc1C(=O)N1CCC(c2c[nH]c3ncc(NC4CCOC4)nc23)CC1 (single isomer, unassigned; isomer 1) [Example 34, [2-amino-4-(trifluoromethoxy)phenyl]-[4-[2-[[tetrahydrofuran-3-yl]amino]-5H-pyrrolo[2,3-b]pyrazin-7-yl]-1-piperidyl]methanone, Isomer 1]
335	126	O=C(c1ccc(OC(F)(F)F)cc1)N1CCC(c2c[nH]c3ncc(NC4CCOC4)nc23)CC1 (single isomer, unassigned; isomer 2) [Example 33, [4-[2-[[tetrahydrofuran-3-yl]amino]-5H-pyrrolo[2,3-b]pyrazin-7-yl]-1-piperidyl]-[4-(trifluoromethoxy)phenyl]methanone, Isomer 2]
131	246	Nc1cc(OC(F)(F)F)ccc1C(=O)N1CCC(c2c[nH]c3ncc(NC4CCOC4)nc23)CC1 (single isomer, unassigned; isomer 2) [Example 35, [2-amino-4-(trifluoromethoxy)phenyl]-[4-[2-[[tetrahydrofuran-3-yl]amino]-5H-pyrrolo[2,3-b]pyrazin-7-yl]-1-piperidyl]methanone, Isomer 2]
17	20	CN1CCC(c2cnc3[nH]cc(C4CCN(C(=O)c5ccc(OC(F)(F)F)cc5N)CC4)c3n2)CC1 [Example 1, [2-Amino-4-(trifluoromethoxy)phenyl]-[4-[2-(1-methyl-4-piperidyl)-5H-pyrrolo[2,3-b]pyrazin-7-yl]-1-piperidyl]methanone]
37	15	Nc1cc(OC(F)(F)F)ccc1C(=O)N1CCC(c2c[nH]c3ncc(C4CCOCC4)nc23)CC1 [Example 2, [2-Amino-4-(trifluoromethoxy)phenyl]-[4-(2-tetrahydropyran-4-yl-5H-pyrrolo[2,3-b]pyrazin-7-yl)-1-piperidyl]methanone]
172	41	O=C(c1ccc(OC(F)(F)F)cc1)N1CCC(c2c[nH]c3ncc(C4CCOCC4)nc23)CC1 [Example 3, [4-(2-Tetrahydropyran-4-yl-5H-pyrrolo[2,3-b]pyrazin-7-yl)-1-piperidyl]-[4-(trifluoromethoxy)phenyl]methanone]
66	60	CN1CCC(c2cnc3[nH]cc(C4CCN(C(=O)c5ccc(OC(F)(F)F)cc5)CC4)c3n2)CC1 [Example 4, [4-[2-(1-Methyl-4-piperidyl)-5H-pyrrolo[2,3-b]pyrazin-7-yl]-1-piperidyl]-[4-(trifluoromethoxy)phenyl]methanone]
403	118	COCCCc1cnc2[nH]cc(C3CCN(C(=O)c4ccc(OC(F)(F)F)cc4)CC3)c2n1 [Example 6, [4-[2-(3-Methoxypropyl)-5H-pyrrolo[2,3-b]pyrazin-7-yl]-1-piperidyl]-[4-(trifluoromethoxy)phenyl]methanone]
169	56	COCCCc1cnc2[nH]cc(C3CCN(C(=O)c4ccc(OC(F)(F)F)cc4N)CC3)c2n1 [Example 7, [2-Amino-4-(trifluoromethoxy)phenyl]-[4-[2-(3-methoxypropyl)-5H-pyrrolo[2,3-b]pyrazin-7-yl]-1-piperidyl]methanone]
25900	226	O=C(c1ccc(OC(F)(F)F)cc1)N1CCC(c2c[nH]c3ncc(C4CCCCC4)nc23)CC1 [Example 8, [4-(2-Cyclohexyl-5H-pyrrolo[2,3-b]pyrazin-7-yl)-1-piperidyl]-[4-(trifluoromethoxy)phenyl]methanone]
2150	156	Nc1cc(OC(F)(F)F)ccc1C(=O)N1CCC(c2c[nH]c3ncc(C4CCCCC4)nc23)CC1 [Example 9, [2-Amino-4-(trifluoromethoxy)phenyl]-[4-(2-cyclohexyl-5H-pyrrolo[2,3-b]pyrazin-7-yl)-1-piperidyl]methanone]
39	–	Nc1cc(OC(F)(F)F)ccc1C(=O)N1CCC(c2c[nH]c3ncc([C@H]4CC[C@H](O)CC4)nc23)CC1 [Example 30, trans-[2-amino-4-(trifluoromethoxy)phenyl]-[4-[2-(4-hydroxycyclohexyl)-5H-pyrrolo[2,3-b]pyrazin-7-yl]-1-piperidyl]methanone]

From patent publication US20260308157A1, “Pyrrolopyrazine Compounds, Preparation Thereof and Therapeutic Uses Thereof” (Sanofi, priority 2023, published 2026)
